Assay results taken from PMC11510177, “New Phytol Derivatives with Increased Cosmeceutical Potential” (Molecules, 2024).
Like-named read-outs stand apart in the source and are kept apart here.

Columns and labels:
elastase = assay: Elastase inhibition assay; assay type: biochemical; settings: 100 µM
Method: The extracts were assayed by the method described by Ndlovu et al. with some modifications. In brief, 25 μL of elastase enzyme solution (0.3 U/mL), 50 μL of ten serial concentrations of the extracts or fractions (0.100–100 μM dissolved in 100 mM HEPES buffer, pH 7.5 containing no more than 2.5 % DMSO), and 125 μL HEPES buffer were mixed in a 96-well plate and incubated at room temperature for 20 min. Then, 50 μL of N-methoxysuccinyl-Ala-Ala-Pro-Val-p-nitroanilide (1 mM) was added. The enzyme activity was measured at 405 nm in the moment of substrate addition and after 40 min of incubation at 25 °C. N-Methoxysuccinyl-Ala-Ala-Pro-chloromethyl ketone at 0.100–100 μM was used as a positive control. The experiments were carried out in triplicate. For each concentration, enzyme activity was calculated as a percentage of the velocities compared to that of the assay, using buffer without any inhibitor. The IC50 value, which was the sample concentration that inhibited 50% of the enzyme activity, was determined interpolation from the % elastase inhibition vs. concentration curve.

[1] = DPPH radical scavenging assay; settings: 100 µM
Method: Antioxidant activity was assayed by the 1,1-diphenyl-2-picryl-hydrazyl (DPPH) radical scavenging assay. Serial dilutions of studied extracts or reference compound (Trolox) were carried out in 96-well microplates, with concentrations ranging between 0.100 μM and 100 μM in methanol. DPPH dissolved in methanol was added to the microwells, yielding a final concentration of 45 µg/mL, and the absorbance at 515 nm was measured after 30 min in the dark. In each assay, a control was prepared in which the same amount of solvent substituted the sample or standard. Percentage of antioxidant activity (% AA) was calculated as %AA = [(Abscontrol − Abssample)/Abscontrol] × 100 (1) where Abscontrol is the absorbance of the control and Abssample is the absorbance of the alga extract or standard. All assays were carried out in triplicate and the results expressed as IC50, i.e., as the concentration yielding 50% scavenging of DPPH, calculated by interpolation from the % AA vs. concentration curve.

hyaluronidase = assay: Hyaluronidase inhibition assay; assay type: biochemical; settings: 100 µM; for increase in hyaluronidase inhibition over phytol: relative to phytol
Method: The assay was conducted following the Sigma protocol with minor adjustments. In a microplate, 25 µL of 5 U/mL of hyaluronidase prepared in 20 mM sodium phosphate buffer (pH 7.0) with 77 mM sodium chloride and 0.01% BSA, was pre-incubated with 50 µL of the sample in concentrations ranging from between 0.100 μM and 100 μM for 10 min at 37 °C. Subsequently, the assay was initiated by adding 25 µL hyaluronic acid (0.015 % in 300 mM sodium phosphate, pH 5.35) to the incubation mixture and incubated for an additional 30 min at 37 °C. Undigested hyaluronic acid was precipitated with 200 µL acid albumin solution composed of 0.1 % bovine serum albumin in 24 mM sodium acetate and 79 mM acetic acid (pH 3.75). After standing at room temperature for 10 min, the absorbance of the reaction mixture was measured at 600 nm. The absorbance in the absence of enzymes (blank) served as the reference value for maximum absorbance. Sodium aurothiomalate was used as a control inhibitor. Enzyme activity was verified by a control experiment conducted simultaneously, in which the enzyme was pre-incubated with buffer instead, followed by the assay procedures described above. The inhibitory activity of the test compound was determined as follows:%Inhibition = [1 − (Absblank − Abssample)/(Absblank − Abscontrol)] × 100(4) where Absblank is the absorbance of the reaction without enzyme, Abssample is the absorbance of the extract or standard compound sodium aurothiomalate, and Abscontrol is the absorbance of the enzyme without inhibitor. The IC50 value, which was the sample concentration that inhibited 50% of the enzyme activity, was determined by interpolation from the % hyaluronidase inhibition vs. concentration curve.

tyrosinase = biological target: T1, tyrosinase (Agaricus bisporus, UniProt C7FF04); assay: Tyrosinase inhibition assay; assay type: biochemical
T1 construct: purchased Sigma-Aldrich
Method: The extracts were assayed by adapting the tyrosinase inhibition method described by Shimizu et al. and modified by Manosroi et al.. […] The experiments were carried out in triplicate. For each concentration, enzyme activity was calculated as a percentage of the velocities compared to that of the assay using buffer without any inhibitor.

[2] = ABTS radical scavenging assay; settings: 100 µM
Method: The method of Re et al. was adopted to perform the ABTS radical scavenging assay. The stock solutions included a 7 mM ABTS solution (2,2′-azinobis-(3 ethylbenzothiazoline 6 sulfonic acid)) and a 2.4 mM potassium persulfate solution. The working solution was prepared by mixing the two stock solutions in equal quantities and allowing for them to react for 12–16 h at room temperature in the dark. The solution was then diluted by mixing 1 mL ABTS solution with the amount of methanol necessary to obtain an absorbance of 0.7 at 734 nm. Serial dilutions of studied extracts or reference compound (Trolox) were carried out in 96-well microplates, with concentrations ranging between 0.100 μM and 100 μM in methanol. ABTS solution was then added to the microwells, and after 8 min of incubation, the absorbance was recorded at […]. In each assay, a negative control was prepared in which the same amount of solvent substituted the sample. The percentage of antioxidant activity (% AA) was calculated as %AA = [(Abscontrol − Abssample)/Abscontrol] × 100 (2) where Abscontrol is the absorbance of ABTS radical + methanol; Abssample is the absorbance of ABTS radical + sample/standard.
All assays were carried out in triplicate and results expressed as IC50, i.e., as the concentration yielding 50% scavenging of ABTS, calculated by interpolation from the % AA vs. concentration curve.

collagenase = assay: Collagenase inhibition assay; assay type: biochemical; settings: 100 µM; for fold increase in collagenase inhibition over phytol: compared to phytol
Method: An adaptation of the method of Mandl et al. was used to determine anti-collagenase activity. The following was added to 2 mL test tubes: 25 μL of collagenase solution (0.8 U/mL); 25 μL TES buffer (50 mM) with 0.36 mM calcium chloride, pH 7.4; and 50 μL of test sample or the reference compound EDTA (with concentrations ranging between 0.100 and 100 μM). The tubes were incubated in a water bath at 37 °C for 20 min. Thereafter, 50 μL FALGPA (1 mM) solution was added to the tubes and further incubated for 60 min at 37 °C. To all tubes, 200 μL of a solution containing equal volumes of a 1.6 mg/mL tin chloride (II) solution in 200 mM citrate buffer, pH 5, and 50 mg/mL ninhydrin solution in DMSO were added. All tubes were placed in a water bath (100 °C) for 5 min and left to cool to room temperature before adding 200 μL of 50% isopropanol to each tube. Contents in the tubes were then transferred to respective wells in 96-well plates. Absorbance was detected at 550 nm. EDTA was used as a control inhibitor. Percentage of collagenase inhibition was calculated as % Collagenase inhibition = [(Abscontrol − Abssample)]/Abscontrol] × 100 (5) where Abscontrol is the absorbance of buffer + collagenase; Abseample is the absorbance of buffer + collagenase + sample/standard.
All assays were carried out in triplicate and results expressed as IC50, i.e., as the concentration yielding 50% of collagenase inhibition, calculated by interpolation from the % collagenase inhibition vs. concentration curve.

[3] = read-out: IC50 against tyrosinase

T1 sequence (C7FF04 1-392 limits assumed): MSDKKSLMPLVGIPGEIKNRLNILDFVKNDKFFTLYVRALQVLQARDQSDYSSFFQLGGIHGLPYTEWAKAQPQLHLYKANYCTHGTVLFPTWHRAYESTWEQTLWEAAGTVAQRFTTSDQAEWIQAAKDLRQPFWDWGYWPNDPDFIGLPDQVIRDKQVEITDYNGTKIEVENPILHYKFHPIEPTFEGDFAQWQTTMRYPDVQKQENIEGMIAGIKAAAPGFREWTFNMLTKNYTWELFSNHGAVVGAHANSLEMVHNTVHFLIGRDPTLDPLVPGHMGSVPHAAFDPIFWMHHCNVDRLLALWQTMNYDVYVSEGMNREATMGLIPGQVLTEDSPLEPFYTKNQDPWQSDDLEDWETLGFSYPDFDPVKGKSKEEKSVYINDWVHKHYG

| SMILES | elastase inhibition (elastase) | Percentage of DPPH scavenging [1] | hyaluronidase inhibition (hyaluronidase) [%] | increase in hyaluronidase inhibition over phytol (hyaluronidase) | IC50 (tyrosinase; [3]) [µM] | Percentage of ABTS scavenging [2] | increase in ABTS antioxidant activity compared to phytol (1) [2] [%] | collagenase inhibition (collagenase) [%] | IC50 (tyrosinase; IC50 against tyrosinase) [µM] | fold increase in collagenase inhibition over phytol (collagenase) [fold] |
| --- | --- | --- | --- | --- | --- | --- | --- | --- | --- | --- |
| C/C(=C\COC(=O)c1ccccc1)CCC[C@@H](C)CCC[C@@H](C)CCCC(C)C (stereo in doubt) [Compound 1a, Phytyl benzoate] | 43.28% | 4.75% | 37.32 | 15–20% | 34.73 ± 0.1 | – | – | – | – | – |
| C/C(=C\COC(=O)/C=C/c1ccccc1)CCC[C@@H](C)CCC[C@@H](C)CCCC(C)C (stereo in doubt) [Compound 1f, Phytyl cinnamoate] | – | about 50% | – | – | 95.68 ± 0.94 | about 50% | 30 | – | – | – |
| CC(=CCO)CCCC(C)CCCC(C)CCCC(C)C (stereo not shown) [Compound 1, 3,7,11,15-tetramethylhexadec-2-en-1-ol, reference compound] | 6.4% | – | – | – | – | – | – | 31.89 | 77.5 ± 0.8 | – |
| COc1ccccc1C(=O)OC/C=C(\C)CCC[C@H](C)CCC[C@H](C)CCCC(C)C [Compound 1b, Phytyl 2-methoxybenzoate] | low | – | 34.74 | – | 59.62 ± 0.51 | – | – | – | – | – |
| COc1cccc(C(=O)OC/C=C(\C)CCC[C@H](C)CCC[C@H](C)CCCC(C)C)c1 [Compound 1c, Phytyl 3-methoxybenzoate] | low | – | 40.1 | 28% | 79 ± 0.87 | – | – | – | – | 1.42 |
| COc1ccc(C(=O)OC/C=C(\C)CCC[C@H](C)CCC[C@H](C)CCCC(C)C)cc1 [Compound 1d, Phytyl 4-methoxybenzoate] | – | – | 22.54 | – | 27.9 | about 50% | 30 | 49.67 | – | 1.56 |
| C/C(=C\COC(=O)c1ccc(Cl)cc1)CCC[C@H](C)CCC[C@H](C)CCCC(C)C [Compound 1e, Phytyl 4-chlorobenzoate] | 27.78% | 11.12% | 14.66 | – | > 100 | – | 30 | – | – | 1.38 |
| C/C(=C\COC(=O)C=Cc1ccc([N+](=O)[O-])cc1)CCC[C@H](C)CCC[C@H](C)CCCC(C)C [Compound 1g, Phytyl 4-nitrocinnamoate] | – | 37.46% | 23.06 | – | 64.1 ± 0.67 | 28.74% | – | 41.02 | – | 1.28 |
| C/C(=C\COC(=O)c1ccco1)CCC[C@H](C)CCC[C@H](C)CCCC(C)C [Compound 1h, Phytyl 2-furoate] | 28.3% | – | 36.02 | 15–20% | > 100 | – | – | 22.37 | – | – |
| C/C(=C\COC(=O)c1cccs1)CCC[C@H](C)CCC[C@H](C)CCCC(C)C [Compound 1i, Phytyl 2-thiophenecarbonoate] | 18.19% | – | – | – | > 100 | 40.58% | – | 41.68 | – | 1.28 |
| Cc1c(C)c2c(c(C)c1O)CCC(C)(C(=O)O)O2 (stereo not shown) [Trolox, 6-hydroxy-2,5,7,8-tetramethylchroman-2-carboxylic acid, reference compound] | – | 97.54% | – | – | – | – | – | – | – | – |
